Experimental data reported in US5869490A, “Azaheterocyclymethyl derivatives of 2,3,8,9-tetrahydro-7h-1,4-dioxino (2,3-e) indol-8-one” (American Home Products Corporation, priority 1997, dated 1999).

biological target: T1, dopamine D2 receptor (Rattus norvegicus, UniProt P61169); test: Affinity for the dopamine D2 receptor (3H-quinpirole, rat striatal homogenate); format: binding; conditions: not given
T1 construct: homogenized rat striatal brain tissue; from tissue; host or cells: rat striatum homogenate
Procedure: Affinity for the dopamine D2 receptor was established by a modification of the standard experimental test procedure of Seemen and Schaus, European Journal of Pharmacology 203: 105-109, 1991, wherein homogenized rat striatal brain tissue is incubated with ^3 H-quinpirole and various concentrations of test compound, filtered and washed and counted in a Betaplate scintillation counter.

T1 sequence (P61169 whole entry): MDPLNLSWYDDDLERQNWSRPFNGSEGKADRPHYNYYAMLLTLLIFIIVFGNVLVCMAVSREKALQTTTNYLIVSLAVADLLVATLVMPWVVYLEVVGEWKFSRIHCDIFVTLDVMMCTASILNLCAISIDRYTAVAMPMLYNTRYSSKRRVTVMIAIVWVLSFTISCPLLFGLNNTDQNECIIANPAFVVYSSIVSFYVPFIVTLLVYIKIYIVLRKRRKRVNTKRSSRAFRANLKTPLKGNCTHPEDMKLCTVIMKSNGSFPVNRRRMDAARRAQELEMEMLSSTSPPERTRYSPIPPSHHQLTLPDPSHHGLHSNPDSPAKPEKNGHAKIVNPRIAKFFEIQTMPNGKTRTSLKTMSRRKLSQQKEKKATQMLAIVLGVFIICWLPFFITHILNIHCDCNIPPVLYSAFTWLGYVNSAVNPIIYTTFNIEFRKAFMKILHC

SMILES	IC50 [nM]
O=C1Cc2c(ccc3c2O[C@@H](CN2CCC4(CC2)C(=O)NCN4c2ccccc2)CO3)N1 [Example 3, 2-(4-Oxo-1-phenyl-1,3,8-triaza-spiro[4,5]dec-8-ylmethyl)-2,3,8,9-tetrahydro-7H-1,4-dioxino-[2,3-e]indol-8-one]	3.2
O=C1Cc2c(ccc3c2O[C@@H](CN2CCC(n4c(=O)[nH]c5ccccc54)CC2)CO3)N1 [Example 4, 2-[4-(2-Oxo-2,3-dihydro-benzimidazol-1-yl)-piperidin-1-ylmethyl]-2,3,8,9-tetrahydro-7H-1,4-dioxino[2,3-e]indol-8-one]	4.08
O=C1Cc2c(ccc3c2O[C@@H](CN2CC=C(c4ccccc4)CC2)CO3)N1 [Example 5, 2-(4-Phenyl-3,6-dihydro-2H-pyridin-1-ylmethyl)-2,3,8,9-tetrahydro-7H-1,4-dioxino[2,3-e]indol-8-one]	1.2

same assay, conditions: rat striatal brain tissue homogenate, 3H-quinpirole; read-out: D2 Receptor Affinity (IC50 (nM))

IC50 [nM]	SMILES
0.35	O=C1Cc2c(ccc3c2O[C@@H](CN2CCc4ccccc4C2)CO3)N1 [Example 1, 2-(3,4-Dihydro-1H-isoguinolin-2-ylmethyl)-2,3,8,9-tetrahydro-7H-1,4-dioxino[2,3-e]indol-8-one]
0.73	O=C1Cc2c(ccc3c2O[C@@H](CN2CCC(C(=O)c4ccc(F)cc4)CC2)CO3)N1 [Example 2, 2-(4-(4-Fluoro-benzoyl)-piperidin-1-ylmethyl]-2,3,8,9-tetrahydro-7H-1,4-dioxino[2,3-e]indol-8-one]
4.06	O=C1Cc2c(ccc3c2O[C@@H](CN2CCN(c4cccc5[nH]ccc45)CC2)CO3)N1 [Example 6, 2-[4-(1H-Indol-4-yl)-piperazin-1-ylmethyl]-2,3,8,9-tetrahydro-7H-1.4-dioxino[2.3-e]indol-8-one]
0.23	O=C1Cc2c(c(F)cc3c2O[C@@H](CN2CCc4ccccc4C2)CO3)N1 [Example 7, 2-(3,4-Dihydro-1H-isoguinolin-2-ylmethyl)-6-fluoro-2,3,8,9-tetrahydro-7H-1,4-dioxino[2,3-e]indol-8-one]
